Reference: PubChem BioAssay (NCI)
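The compound was tested at five concentrations on cells cultured in 96-well plates, with a 48-hour exposure period. TGI is the concentration that stops growth completely.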

Columns and labels:
Assay in all cases: inhibition of tumour cell growth, NCI panel, 48 h
786-0 renal = system: 786-0 renal
A498 renal = system: A498 renal
A549 NSCLC = system: A549 NSCLC
ACHN renal = system: ACHN renal
CAKI-1 renal = system: CAKI-1 renal
CCRF-CEM leukemia = system: CCRF-CEM leukemia
COLO 205 colon = system: COLO 205 colon
DLD-1 colon = system: DLD-1 colon
DMS 114 small cell lung = system: DMS 114 small cell lung
DMS 273 small cell lung = system: DMS 273 small cell lung
EKVX NSCLC = system: EKVX NSCLC
HCC-2998 colon = system: HCC-2998 colon
HCT-116 colon = system: HCT-116 colon
HCT-15 colon = system: HCT-15 colon
HL-60(TB) leukemia = system: HL-60(TB) leukemia
HOP-18 NSCLC = system: HOP-18 NSCLC
HOP-62 NSCLC = system: HOP-62 NSCLC
HOP-92 NSCLC = system: HOP-92 NSCLC
HT29 colon = system: HT29 colon
IGROV1 ovarian = system: IGROV1 ovarian
K-562 leukemia = system: K-562 leukemia
KM12 colon = system: KM12 colon
KM20L2 colon = system: KM20L2 colon
LOX IMVI melanoma = system: LOX IMVI melanoma
LXFL 529 NSCLC = system: LXFL 529 NSCLC
M14 melanoma = system: M14 melanoma
M19-MEL melanoma = system: M19-MEL melanoma
MALME-3M melanoma = system: MALME-3M melanoma
NCI-H23 lung = system: NCI-H23 lung
NCI-H460 lung = system: NCI-H460 lung
NCI-H522 lung = system: NCI-H522 lung
OVCAR-3 ovarian = system: OVCAR-3 ovarian
OVCAR-5 ovarian = system: OVCAR-5 ovarian
OVCAR-8 ovarian = system: OVCAR-8 ovarian
RPMI-8226 leukemia = system: RPMI-8226 leukemia
SF-268 CNS = system: SF-268 CNS
SF-295 CNS = system: SF-295 CNS
SF-539 CNS = system: SF-539 CNS
SK-MEL-2 melanoma = system: SK-MEL-2 melanoma
SK-MEL-28 melanoma = system: SK-MEL-28 melanoma
SK-MEL-5 melanoma = system: SK-MEL-5 melanoma
SK-OV-3 ovarian = system: SK-OV-3 ovarian
SN12C renal = system: SN12C renal
SNB-19 CNS = system: SNB-19 CNS
SNB-75 CNS = system: SNB-75 CNS
SNB-78 CNS = system: SNB-78 CNS
SR leukemia = system: SR leukemia
SW-620 colon = system: SW-620 colon
TK-10 renal = system: TK-10 renal
U251 CNS = system: U251 CNS
UACC-257 melanoma = system: UACC-257 melanoma
UACC-62 melanoma = system: UACC-62 melanoma
UO-31 renal = system: UO-31 renal
OVCAR-4 ovarian = system: OVCAR-4 ovarian
RXF 393 renal = system: RXF 393 renal
XF 498 CNS = system: XF 498 CNS

Measured: TGI

CCOC(=O)C(OCC1CC=CCC1)Sc1ccccc1 (stereo unspecified)
not listed: OVCAR-4 ovarian | RXF 393 renal | XF 498 CNS
> 100 µM: all other assays above

CCOC(=O)C1(CC)CCCCC(=O)N1 (stereo unspecified)
not listed: A498 renal | HCT-116 colon | KM12 colon | NCI-H522 lung | OVCAR-5 ovarian | RPMI-8226 leukemia | SF-539 CNS | SK-MEL-2 melanoma | SK-MEL-5 melanoma | SNB-19 CNS | SNB-75 CNS | SR leukemia | UACC-257 melanoma
> 100 µM: all other assays above
